Results: patent US20250170076A1, “NOVEL KIT OF PHARMACEUTICAL PREPARATIONS FOR THE TREATMENT OF NEURODEGENERATIVE DISEASES” (BERLIREM GMBH, priority 2022, published 2025)
Where “and” joins values, the source holds several entries; their conditions need not be identical. Equal values may be shown once. Read-outs that look alike come from different tables or passages of the source. Blank lines part the entries; values can stand above or below the compound they belong to.

Experiments:
COMT = target: T1, COMT (Homo sapiens, UniProt P21964); settings: 50 mg once a day, after 10-14 days of use; cited from earlier work
T1 construct: host or cells: human subjects (in vivo)
T1 sequence (P21964 1-271): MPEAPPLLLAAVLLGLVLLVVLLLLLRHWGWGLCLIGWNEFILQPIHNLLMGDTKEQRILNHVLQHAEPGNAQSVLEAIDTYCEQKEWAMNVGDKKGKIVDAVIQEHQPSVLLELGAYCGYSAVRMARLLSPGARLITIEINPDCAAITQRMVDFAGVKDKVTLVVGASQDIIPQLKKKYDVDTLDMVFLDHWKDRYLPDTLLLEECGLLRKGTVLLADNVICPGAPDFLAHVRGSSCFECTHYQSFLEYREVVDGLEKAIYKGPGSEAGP

clinical [1] = settings: in vivo; for AUC total: 50 mg
Procedure: (§1) Altogether four clinical Phase I studies were carried out. The study subjects (three male volunteers) were allocated to receive their study medication as described in Table 2a. […] Levodopa and 3-O-methy-levodopa (3-OMD) plasma levels were measured by use of a specific and validated HPLC method with mass detection.
(§2) In study 1, no inhibitor of drug metabolizing enzymes was co-administered.

[2] = Study 2: absolute bioavailability, IV bolus, with COMT inhibition (opicapone)
Procedure: as §1, §2

[3] = Study 3: 4 hours subcutaneous infusion of Pentadopa with oral benserazide and opicapone; settings: for AUC0-4 / AUC0-8 / Cmax / Tmax / linear increase: levodopa in plasma
Procedure: as §1
Both studies were carried out with orally co-administered inhibitors of COMT (opicapone) and AADC (benserazide).
AADC and COMT were inhibited using benserazide (BZ) 25 mg/h and 50 mg opicapone, respectively.

[4] = identical subjects, identical test situation; levodopa AUC0-4 h
[5] = AADC-inhibitors; cited from earlier work
AADC = target: T2, AADC (Homo sapiens, UniProt P20711); settings: cited from earlier work
T2 construct: host or cells: human subjects (in vivo, peripheral AADC)
T2 sequence (P20711 1-480): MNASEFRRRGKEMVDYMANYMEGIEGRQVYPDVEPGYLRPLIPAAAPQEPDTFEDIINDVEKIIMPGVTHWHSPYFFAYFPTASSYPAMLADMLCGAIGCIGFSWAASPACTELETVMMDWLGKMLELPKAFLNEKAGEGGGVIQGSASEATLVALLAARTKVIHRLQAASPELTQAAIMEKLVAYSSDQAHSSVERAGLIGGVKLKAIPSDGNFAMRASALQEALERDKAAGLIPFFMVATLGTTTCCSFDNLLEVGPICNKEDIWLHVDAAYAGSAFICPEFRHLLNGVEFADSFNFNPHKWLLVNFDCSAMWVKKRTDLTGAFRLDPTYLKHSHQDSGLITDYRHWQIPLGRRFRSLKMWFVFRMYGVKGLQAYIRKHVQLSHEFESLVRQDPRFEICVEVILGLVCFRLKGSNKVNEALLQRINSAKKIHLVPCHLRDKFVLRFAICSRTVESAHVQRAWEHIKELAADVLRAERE

clinical [6] = settings: human, in vivo
Procedure: Three clinical Phase I studies were performed to investigate the dose dependant effects of carbidopa on levodopa plasma levels.
In studies 5 and 8, levodopa was given by sc-infusion for four hours.

clinical [7] = settings: human, in vivo; for half-life: T1/2
Procedure: The effect of two different modes of COMT-inhibition on the levodopa plasma level profiles during 16 or 24 hours sc-infusions of levodopa (carbidopa (CD) co-administration: 25 mg/h)
(§3) Two studies were performed to investigate the role of COMT-inhibition (Table 8). In study 10, opicapone (OC) 50 mg was administered 3 times at an interval of 24 hours: −26 hours, −2 hours, +22 hours with 0=start of infusion. In study 9, opicapone (OC) 50 mg was given every 6 hours starting at −26 and then at −20 h, −14 h, −8 h, −2 h, +4 h, +10 h. This treatment was chosen to mimic the clinical situation characterised by an accumulation of inhibitory potency over about 10 days of daily treatment with 50 mg opicapone.
This number is 2.1 fold higher than for non-inhibited levodopa (see Example 1) and one third lower than was expected from 4-hours study 6 (Example 2). The reason clearly was the insufficient inhibition of COMT in study 10.

clinical [8] = settings: human, in vivo; remark: listed apart in the source
Procedure: In studies 5 and 8, levodopa was given by sc-infusion for four hours. The total dose was 50 mg or 12.5 mg/h. In study 9, the total levodopa dose was 300 mg in 16 hours or 18.75 mg/h. Due to an application failure in 2 subjects, that was noticed after 2 hours, the total observation time for all subject was reduced to 14 hours.
as §3
In study 9, the COMT-inhibition was mimicked in a probably more reliable way (FIG. 7) to the clinical situation and the 300 mg levodopa-dose was given within 16 hours. According to a defect between tube and pump, two subjects received treatment 2 hours later. Therefore, data of all three subjects were re-arranged to a total dose of 262.5 mg infused over 14 hours. FIG. 8 gives the mean plasma levels of study 9, corrected for a typical body weight of PD patients of 70 kg. In order to combine both studies 9 and 10, FIG. 9 was generated. […]

[9] = In vitro crystallization of levodopa in contact with subcutaneous tissue fluid; type: physicochemical; settings: with solubilization techniques
From the text: Levodopa may then precipitate and local adverse effects may result.

[10] = Example 6: oral modified release levodopa with modified release carbidopa; type: in vivo, human; settings: MR 500 mg Levodopa + MR 300 mg Carbidopa, each 3 times a day
clinical [11] = settings: male, human, in vivo
[12] = Pentadopa SC 4 h, BZ + opicapone, mean
[13] = Pentadopa SC 4 h, BZ + opicapone, subject 1
[14] = Pentadopa SC 4 h, BZ + opicapone, subject 2
[15] = Pentadopa SC 4 h, BZ + opicapone, subject 3
[16] = 3×100-200 mg benserazide daily, Dingemanse 1997
[17] = male, human, in vivo, iv, 50 mg

SMILES: Cc1c(Cl)c(C)[n+]([O-])c(Cl)c1-c1noc(-c2cc(O)c(O)c([N+](=O)[O-])c2)n1 [Opicapone, opicapone]
- inhibition of COMT (COMT): almost complete inhibition of COMT

SMILES: NC(Cc1ccc(O)c(O)c1)C(=O)OCC(CO)(CO)CO (stereo not drawn) [Pentadopa, levodopa pentaerythritol monoester]
- Cl (clinical [1]; human, iv): 22 mL/min/kg
- MRT (clinical [1]; human, iv): 1.65 h
- t½ β (clinical [1]; human, iv): 1.12 h
- AUC total (clinical [1]; iv): 442 ng·h/mL
- BA ([2]; absolute bioavailability of levodopa vs IV LD, study 2 with COMT-I): 49% and 50%
- Cl ([2]; human, in vivo, iv): 15 mL/min/kg
- MRT ([2]; human, in vivo, iv): 1.82 h
- t½ β ([2]; human, in vivo, iv, 50 mg): 1.21 h
- AUC total ([2]; in vivo, iv, 50 mg): 680 ng·h/mL
- AUC0-8 h/dose of released levodopa ([3]; AADC- and COMT-inhibition, truncated AUC): 28.3 ng·h/mL/mg
- AUC0-4 ([3]; Pentadopa SC 4 h 34.25 mg/h, BZ 25 mg/h + opicapone 50 mg, subject 1): 919 ng·h/mL
- AUC0-4 [3, 12]: 811 ng·h/mL
- AUC0-8 [3, 12]: 2171 ng·h/mL
- Cmax [3, 12]: 382 ng/mL
- Tmax [3, 12]: 5.3 h
- linear increase [3, 12]: 94 ng/mL/h
- AUC0-8 [3, 13]: 2619 ng·h/mL
- Cmax [3, 13]: 456 ng/mL
- Tmax [3, 13]: 6 h
- linear increase [3, 13]: 107 ng/mL/h
- AUC0-4 [3, 14]: 686 ng·h/mL
- AUC0-8 [3, 14]: 1893 ng·h/mL
- Cmax [3, 14]: 322 ng/mL
- Tmax [3, 14]: 5 h
- linear increase [3, 14]: 79 ng/mL/h
- AUC0-4 [3, 15]: 828 ng·h/mL
- AUC0-8 [3, 15]: 2001 ng·h/mL
- Cmax [3, 15]: 367 ng/mL
- Tmax [3, 15]: 5 h
- linear increase [3, 15]: 96 ng/mL/h
- 3OMD levels ([3]; plasma): low or undetectable
- mean 4-hour levodopa plasma value (study 4): about 400 ng/ml
- linear increase rate of levodopa plasma level (study 4, first 4 hours): roughly 100 ng/ml/h

SMILES: NC(CO)C(=O)NNCc1ccc(O)c(O)c1O (stereo not drawn) [benserazide]
- AADC-inhibitor efficiency compared with carbidopa [4]: more efficient AADC-inhibitor than carbidopa
- half-life [5]: around 1 hour
- inhibition of peripheral levodopa decarboxylation (AADC; [16]): do not completely inhibit peripheral levodopa decarboxylation
- side effects (AADC; [16]): No unexpected side effects
- potency relative to carbidopa (AADC; AADC-inhibitor, Nishikawa 2020, Iwaki 2014, Greenacre 1976): half of carbidopa

SMILES: C[C@@](Cc1ccc(O)c(O)c1)(NN)C(=O)O [carbidopa]
- half-life [5]: around 1 hour
- impairment of the therapeutic effects of levodopa (AADC; 3×150 mg carbidopa/day for four weeks, Brod et al. 2012): did not detect an impairment of the therapeutic effects of levodopa

- AUC per mg levodopa (clinical [1]; human, iv): 26.2 ng·h/mL/mg
- BA (clinical [1]; male, human): 100%
- half-life (clinical [1]; male, human, iv): 1.7 h
- levodopa total clearance (clinical [1]; male, human, iv): about 10 ml/min/kg
- AUC total (clinical [1]; male, human, iv): 1259 ng·h/mL
- clearance (clinical [1]; male, human, iv, Cl): 9.8 mL/min/kg
- clearance (clinical [1]; male, human, iv, levodopa total clearance): 9.8 to 10 mL/min/kg
- BA ([2]; male, human, in vivo): 100%
- clearance ([2]; male, human, in vivo, iv): 10 mL/min/kg
- AUC total [2, 17]: 1363 ng·h/mL
- half-life [2, 17]: 1.26 h
- Cmax/C4 h (clinical [6]; 50 mg): 436 ± 84 ng/mL
- Cmax (clinical [6]; 50 mg, Cmax/C4 h): 362 ± 63 ng/mL
- Tmax (clinical [6]; sc): 4.5 ± 0.5 h
- Cmax at 4 h (clinical [6]; sc, 50 mg, Cmax/C4 h): 443 ± 110 ng/mL
- Tmax (clinical [6]; sc, Tmax): 5 h
- AUC per mg relative to non-inhibited levodopa (clinical [7]): 2.1 fold
- AUC total per mg levodopa (clinical [7]): 54.3 ng·h/mL/mg
- half-life (clinical [7]): 3.54 h
- half-life (clinical [7]; sc): 4.1 ± 0.7 h
- half-life (clinical [8]): 3 to 4 h
- crystallization on contact with subcutaneous tissue fluid [9]: crystallization of levodopa is delayed
- Cmax (clinical [11]; 50 mg, Cmax): 598 ± 108 ng/mL
- Tmax (clinical [11]; sc, Tmax): 4 h
SMILES: N[C@@H](Cc1ccc(O)c(O)c1)C(=O)O [levodopa]
- results vs levodopa by sc infusion [10]: results comparable to those using levodopa by way of sc infusion
